Source: patent publication US20130281512A1, “AGENTS FOR TREATING DISORDERS INVOLVING MODULATION OF RYANODINE RECEPTORS” (LES LABORATOIRES SERVIER, priority 2012, published 2013)

Key:
[1] = Metabolic stability in human hepatic microsomes (Clint, predicted MF %); format: in vitro ADME; details: for Clint_mic man (in vitro intrinsic clearance): 10^-7 M, 0.33 mg protein/ml, NADPH; for MF mic % (metabolic bioavailability): predicted from Clint assuming total absorption
Procedure: (§1) Compound solubilization: Stock solutions were made in DMSO, and working solutions in water containing 1 mg/ml BSA.
(§2) Prediction of metabolic bioavailability: Metabolic bioavailability predictions (MF %) were based on in vitro metabolic stability measurements with hepatic microsomes assuming total absorption. Briefly, unchanged drugs were quantified by LC-MS-MS following incubation (10^−7M) with rat and human hepatic microsomes (0.33 mg protein/ml) after 0, 5, 15, 30 and 60 min of incubation in presence of NADPH (1 mM). Enzymatic reaction was stopped with methanol (v/v) and proteins were precipitated by centrifugation. The in vitro intrinsic clearances (Clint_mic) expressed as ml/min/g protein were the slope (after LN linearization) of the unchanged drug remaining concentration versus incubation time. In vitro Clint were then scaled up to in vivo whole body (vivoClint) using 0.045 mg prot/kg of liver and liver weight of 11 g for the rat and 1.2 kg for Man.

[2] = system: human hepatocytes; experiment: Metabolic stability in human hepatocytes; format: in vitro ADME; details: for Clint: 4.00E+05 cells/ml, 10^-7 M
Procedure: (§3) Compound solubilization: Stock solutions were made in DMSO, and working solutions in William medium containing 1/10 rat plasma or 1/4 human plasma.
(§4) Metabolic stability determination: Compounds were incubated at 10^−7 M with isolated hepatocytes (6E+5 cells/ml for rat hepatocytes and 4E+5 cells/ml for human hepatocytes) at 37° C. in plasma from the same species diluted in Wiliams medium (1/10 dilution for rat and 1/4 dilution for human). Sampling times were performed at 0, 10, 20, 30, 60 and 120 min and enzymatic reaction stopped with methanol (v/v). Proteins were precipitated by centrifugation and the supernatant was analyzed by LC/MS/MS. Clint expressed as ml/min/g protein were calculated as for hepatic microsomes using a ratio of 0.134 mg protein/ml for 4E+5 cells/ml for human and 0.201 mg protein/ml for 6E+5 cells/ml for rat. The presence of the reference drug and the potential metabolite was checked by LC/MS/MS during the assay in each sample.

[3] = Metabolic stability in mouse microsomes (% remaining); format: in vitro ADME
Procedure: (§5) 0.1M Tris HCl buffer at pH 7.4 containing 5 mM EDTA.
(§6) To a 50 mL falcon tube containing 2.79 mL of dilution buffer were added 0.429 mL of NADPH-regenerating soln. A and 0.079 mL of NADPH-regenerating soln. B […]
(§7) […] A 50 mL falcon tube containing 3.32 mL of dilution buffer was prewarmed at 37° C. for 15 min. (at least 10 min.) 0.178 mL of microsome (24.6 mg/mL) were added to the prewarmed dilution buffer. The protein concentration of this microsome preparation was 1.25 mg/mL.
(§8) Sample (Test Compound)—Original and Intermediate Stock Solutions:
(§9) 100 μM intermediate solution of the test compound from the original stock solution were prepared using the dilution buffer. A 5 μM solution was prepared by diluting the 100 μM intermediate solution using dilution buffer.
(§10) (The experiments were conducted in 1.5 mL eppendorf micro centrifuge tubes) 0 minutes incubation. Procedure: a. Add 100 μL of prewarmed microsomes b. Add 50 μL of 5 μM solution of the test compound. c. Add 500 μL of cold stop solution (ice cold Methanol) d. Add 100 μL of NADPH cofactor solution to the eppendorf. a. Vortex mix the eppendorf. […]
(§11) b. Add 100 μL of NADPH cofactor solution to the eppendorf. c. Add 50 μL of 5 μM solution of the test compound. d. Add 100 μL of prewarmed microsomes e. Incubate the eppendorf at 37° C. 300 rpm for ‘t’ min. on a thermomixer. f. Remove the eppendorf from thermomixer g. Add 500 μL of cold stop solution (ice cold Methanol) h. Vortex mix the eppendorf.
(§12) Both the ‘0’ and ‘t’ minutes incubated samples were centrifuged at 15, 000 rcf at 4° C. for 15 min. 500 μL of the supernatant solution was removed and subject it to LC/MS analysis (SIM—Selected Ion Monitoring) […]
(§13) Results are expressed as % test compound remaining=(MS Area response of T min sample/MS Area response of ‘0’ min sample)*100. The MS area used is an average of duplicate injections.
(§14) Time points=0, 15, 30 and 60 min. for each test compound
(§15) 2 μM Imipramine—5 min. and 2 μM Imipramine—15 min. incubation was used as a positive control for the rat and mouse liver microsome stability experiments.

[4] = system: rat hepatocytes; experiment: Metabolic stability in rat hepatocytes; format: in vitro ADME; details: for Clint: 6.00E+05 cells/ml, 10^-7 M
Procedure: as §3, §4

[5] = Metabolic stability in rat microsomes (% remaining); format: in vitro ADME
Procedure: as §5, §6, §7, §8, §9, §10, §11, §12, §13, §14, §15

[6] = Metabolic stability in rat hepatic microsomes (Clint, predicted MF %); format: in vitro ADME; details: for Clint_mic rat (in vitro intrinsic clearance): 10^-7 M, 0.33 mg protein/ml, NADPH; for MF mic % (metabolic bioavailability): predicted from Clint assuming total absorption
Procedure: as §1, §2

[7] = system: DMD exon skipping; details: skeletal muscle of mdx mice; cited from earlier work
[8] = target: PKA-phosphorylated RyR1 (Homo sapiens, UniProt P21817); experiment: biochemical
Procedure: Immunoblotting of microsomes (50 μg) was performed as described, with anti-calstabin1 antibody (Zymed) (1:1,000). The blots were developed and quantified as described in Example 2.

[9] = target: T1, PKA-phosphorylated RyR2 (Homo sapiens, UniProt Q92736); experiment: Calstabin2 rebinding assay: binding of calstabin2 to PKA-phosphorylated RyR2 (cardiac SR, immunoblot); details: 100 nM compound; immunoblot with calstabin2 antibody
T1 construct: Cardiac SR membranes were prepared as previously described; from tissue; host or cells: cardiac sarcoplasmic reticulum (heart muscle microsomes)
T1 sequence (Q92736 whole entry): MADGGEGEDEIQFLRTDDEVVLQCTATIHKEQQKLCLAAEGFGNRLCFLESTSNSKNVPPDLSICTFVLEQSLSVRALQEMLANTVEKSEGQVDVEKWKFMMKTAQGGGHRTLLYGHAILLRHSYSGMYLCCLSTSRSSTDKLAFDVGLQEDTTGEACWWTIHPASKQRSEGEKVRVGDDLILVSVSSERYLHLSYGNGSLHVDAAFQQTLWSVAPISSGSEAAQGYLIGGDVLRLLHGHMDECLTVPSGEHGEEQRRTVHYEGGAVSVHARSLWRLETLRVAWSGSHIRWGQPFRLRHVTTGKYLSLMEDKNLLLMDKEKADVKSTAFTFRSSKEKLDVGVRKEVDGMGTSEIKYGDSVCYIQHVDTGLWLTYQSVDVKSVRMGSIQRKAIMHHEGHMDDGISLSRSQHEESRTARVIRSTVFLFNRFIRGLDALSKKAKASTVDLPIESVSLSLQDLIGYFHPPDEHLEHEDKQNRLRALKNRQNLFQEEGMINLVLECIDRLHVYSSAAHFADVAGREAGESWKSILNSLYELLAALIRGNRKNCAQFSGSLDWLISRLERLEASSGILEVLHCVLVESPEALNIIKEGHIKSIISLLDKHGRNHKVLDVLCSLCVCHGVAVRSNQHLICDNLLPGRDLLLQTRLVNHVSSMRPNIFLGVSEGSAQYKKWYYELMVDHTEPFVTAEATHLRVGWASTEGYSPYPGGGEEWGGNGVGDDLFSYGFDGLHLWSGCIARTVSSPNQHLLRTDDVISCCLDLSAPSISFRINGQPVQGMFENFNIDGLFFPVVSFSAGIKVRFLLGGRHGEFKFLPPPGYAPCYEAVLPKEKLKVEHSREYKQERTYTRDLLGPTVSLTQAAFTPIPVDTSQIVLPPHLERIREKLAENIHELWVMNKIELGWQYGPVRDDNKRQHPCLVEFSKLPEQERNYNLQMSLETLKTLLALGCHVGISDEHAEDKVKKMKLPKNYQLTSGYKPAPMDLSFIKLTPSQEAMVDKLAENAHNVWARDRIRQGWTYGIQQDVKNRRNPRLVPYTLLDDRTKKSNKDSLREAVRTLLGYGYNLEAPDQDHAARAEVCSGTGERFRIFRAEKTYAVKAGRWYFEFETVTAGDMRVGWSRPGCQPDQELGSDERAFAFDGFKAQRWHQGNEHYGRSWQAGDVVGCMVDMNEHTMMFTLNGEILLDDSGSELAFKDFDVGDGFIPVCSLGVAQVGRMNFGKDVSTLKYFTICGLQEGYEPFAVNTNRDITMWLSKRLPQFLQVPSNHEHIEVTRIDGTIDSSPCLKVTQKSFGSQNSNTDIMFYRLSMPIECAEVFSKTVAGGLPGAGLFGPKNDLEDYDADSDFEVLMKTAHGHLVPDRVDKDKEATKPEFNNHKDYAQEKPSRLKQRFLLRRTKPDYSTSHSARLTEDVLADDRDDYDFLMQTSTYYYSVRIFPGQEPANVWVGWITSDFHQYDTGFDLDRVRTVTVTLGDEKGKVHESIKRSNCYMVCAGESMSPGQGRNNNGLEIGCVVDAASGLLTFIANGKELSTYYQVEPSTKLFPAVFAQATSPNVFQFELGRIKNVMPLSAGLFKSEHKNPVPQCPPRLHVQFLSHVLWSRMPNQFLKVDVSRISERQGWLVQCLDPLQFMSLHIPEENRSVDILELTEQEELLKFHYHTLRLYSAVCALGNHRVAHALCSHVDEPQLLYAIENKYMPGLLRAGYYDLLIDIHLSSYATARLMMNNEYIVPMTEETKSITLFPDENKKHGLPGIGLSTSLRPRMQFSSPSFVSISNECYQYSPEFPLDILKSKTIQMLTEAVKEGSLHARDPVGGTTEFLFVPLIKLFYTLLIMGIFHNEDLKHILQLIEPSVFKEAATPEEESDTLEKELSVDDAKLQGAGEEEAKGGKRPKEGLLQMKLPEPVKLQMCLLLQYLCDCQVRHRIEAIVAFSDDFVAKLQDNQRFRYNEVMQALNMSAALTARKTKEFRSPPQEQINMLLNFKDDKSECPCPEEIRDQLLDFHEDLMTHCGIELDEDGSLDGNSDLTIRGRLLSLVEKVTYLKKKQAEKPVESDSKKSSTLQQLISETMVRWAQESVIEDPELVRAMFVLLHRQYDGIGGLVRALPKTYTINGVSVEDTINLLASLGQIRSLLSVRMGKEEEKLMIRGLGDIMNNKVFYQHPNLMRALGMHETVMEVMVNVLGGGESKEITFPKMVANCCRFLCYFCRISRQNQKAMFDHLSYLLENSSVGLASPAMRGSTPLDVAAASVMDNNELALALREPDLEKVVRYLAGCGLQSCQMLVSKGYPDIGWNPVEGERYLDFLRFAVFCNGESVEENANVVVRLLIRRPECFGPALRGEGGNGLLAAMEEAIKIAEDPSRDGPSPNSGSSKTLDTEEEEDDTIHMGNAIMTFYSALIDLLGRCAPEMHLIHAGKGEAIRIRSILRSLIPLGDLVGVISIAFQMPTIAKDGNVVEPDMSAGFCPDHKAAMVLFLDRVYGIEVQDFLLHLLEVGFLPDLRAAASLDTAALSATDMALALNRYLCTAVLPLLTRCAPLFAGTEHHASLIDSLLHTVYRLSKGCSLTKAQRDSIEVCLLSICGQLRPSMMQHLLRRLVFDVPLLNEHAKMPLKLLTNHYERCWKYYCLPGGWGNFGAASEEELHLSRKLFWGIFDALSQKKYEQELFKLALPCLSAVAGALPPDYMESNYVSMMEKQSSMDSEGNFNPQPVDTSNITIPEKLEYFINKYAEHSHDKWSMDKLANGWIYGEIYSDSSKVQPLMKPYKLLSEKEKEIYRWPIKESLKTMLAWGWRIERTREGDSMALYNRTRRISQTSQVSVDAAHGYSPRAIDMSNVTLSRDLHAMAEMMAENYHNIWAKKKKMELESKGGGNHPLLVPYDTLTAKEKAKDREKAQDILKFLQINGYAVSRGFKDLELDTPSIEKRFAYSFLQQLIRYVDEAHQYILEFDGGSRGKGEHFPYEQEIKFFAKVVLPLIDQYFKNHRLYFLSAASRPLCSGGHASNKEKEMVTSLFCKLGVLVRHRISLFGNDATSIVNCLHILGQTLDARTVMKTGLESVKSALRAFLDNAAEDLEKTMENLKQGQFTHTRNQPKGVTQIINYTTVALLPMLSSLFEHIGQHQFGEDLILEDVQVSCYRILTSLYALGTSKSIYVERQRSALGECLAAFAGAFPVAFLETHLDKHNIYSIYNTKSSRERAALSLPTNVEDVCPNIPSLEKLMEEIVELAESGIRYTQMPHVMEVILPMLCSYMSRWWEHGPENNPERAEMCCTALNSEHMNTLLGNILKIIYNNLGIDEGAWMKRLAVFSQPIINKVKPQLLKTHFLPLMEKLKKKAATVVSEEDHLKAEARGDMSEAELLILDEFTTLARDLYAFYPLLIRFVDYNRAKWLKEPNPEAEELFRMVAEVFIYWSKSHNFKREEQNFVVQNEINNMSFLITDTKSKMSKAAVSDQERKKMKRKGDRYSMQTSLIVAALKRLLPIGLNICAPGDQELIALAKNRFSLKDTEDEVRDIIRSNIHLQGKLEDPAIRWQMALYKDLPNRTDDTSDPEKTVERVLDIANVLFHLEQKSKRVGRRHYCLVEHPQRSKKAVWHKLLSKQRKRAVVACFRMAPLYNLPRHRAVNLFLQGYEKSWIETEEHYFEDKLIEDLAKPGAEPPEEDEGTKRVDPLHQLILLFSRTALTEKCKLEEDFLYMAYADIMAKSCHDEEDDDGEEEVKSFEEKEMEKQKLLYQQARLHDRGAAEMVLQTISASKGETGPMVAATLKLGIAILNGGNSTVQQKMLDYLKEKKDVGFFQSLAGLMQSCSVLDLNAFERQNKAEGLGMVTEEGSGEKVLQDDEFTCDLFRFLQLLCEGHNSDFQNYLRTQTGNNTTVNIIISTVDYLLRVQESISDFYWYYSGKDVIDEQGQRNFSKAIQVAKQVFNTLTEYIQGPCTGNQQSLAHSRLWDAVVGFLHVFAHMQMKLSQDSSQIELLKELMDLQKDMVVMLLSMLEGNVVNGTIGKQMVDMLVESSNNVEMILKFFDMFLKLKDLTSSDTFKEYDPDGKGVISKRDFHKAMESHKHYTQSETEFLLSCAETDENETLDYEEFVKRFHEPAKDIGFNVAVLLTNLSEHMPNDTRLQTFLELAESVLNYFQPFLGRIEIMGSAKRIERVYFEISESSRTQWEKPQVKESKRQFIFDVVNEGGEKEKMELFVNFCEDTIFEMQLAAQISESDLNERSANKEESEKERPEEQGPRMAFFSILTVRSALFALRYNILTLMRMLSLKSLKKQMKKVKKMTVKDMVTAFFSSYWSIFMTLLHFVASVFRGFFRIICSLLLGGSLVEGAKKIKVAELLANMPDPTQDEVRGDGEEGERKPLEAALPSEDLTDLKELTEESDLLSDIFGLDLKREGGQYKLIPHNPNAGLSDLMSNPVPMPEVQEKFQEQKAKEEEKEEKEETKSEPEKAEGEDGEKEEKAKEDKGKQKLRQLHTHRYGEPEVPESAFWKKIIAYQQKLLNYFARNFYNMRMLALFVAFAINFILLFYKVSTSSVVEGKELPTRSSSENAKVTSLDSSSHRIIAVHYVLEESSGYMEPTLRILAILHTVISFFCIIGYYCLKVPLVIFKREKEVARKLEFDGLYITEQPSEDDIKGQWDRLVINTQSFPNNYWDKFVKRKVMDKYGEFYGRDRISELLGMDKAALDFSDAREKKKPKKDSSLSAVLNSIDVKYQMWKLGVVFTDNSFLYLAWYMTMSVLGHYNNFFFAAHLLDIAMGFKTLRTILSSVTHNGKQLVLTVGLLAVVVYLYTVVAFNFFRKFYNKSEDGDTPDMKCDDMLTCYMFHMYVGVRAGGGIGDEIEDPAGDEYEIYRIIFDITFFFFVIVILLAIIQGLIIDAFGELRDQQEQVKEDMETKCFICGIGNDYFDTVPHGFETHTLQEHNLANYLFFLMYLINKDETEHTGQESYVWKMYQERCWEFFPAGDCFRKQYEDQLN
T1 sequence (P68106 whole entry partner): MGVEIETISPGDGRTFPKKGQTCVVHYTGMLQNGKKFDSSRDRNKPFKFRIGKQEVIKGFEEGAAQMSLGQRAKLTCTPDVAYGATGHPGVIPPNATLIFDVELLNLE
Procedure: Cardiac SR membranes were prepared as previously described (Marx et al., 2000; Kaftan et al., Circ. Res., 1996, 78:990-97). Immunoblotting of microsomes (50 μg) was performed as described, with anti-calstabin antibody (1:1,000) (Jayaraman et al., J. Biol. Chem., 1992, 267:9474-77) for 1 hr at room temperature (Reiken et al., Circulation, 107:2459-66, 2003). After incubation with HRP-labeled anti-rabbit IgG (1:5,000 dilution; Transduction Laboratories, Lexington, Ky.), the blots were developed using ECL (Amersham Pharmacia, Piscataway, N.J.) and detected on x-ray film, or exposed to secondary antibodies labeled with infrared Dye and visualized on equipment from Li-Cor Biosciences (model Odyssey). Unless otherwise stated, compounds were tested at a concentration of 100 nM. A representative calstabin2 binding assay is presented below.
A. PKA phosphorylation of cardiac sarcoplasmic reticulum (CSR)
B. Reaction mixture was set up in 1.5 ml microfuge tube. 200 μg of cardiac SR were added to a reaction mix of kinase buffer, PKA and ATP to a final volume of 100 (Reaction mix below). ATP was added last to initiate the reaction.
20 μl Sample (cardiac SR, 2 or 10 μg/μl) 10 μl=10× Kinase buffer (80 mM MgCl2, 100 mM EGTA, 500 mM Tris/PIPES), pH=7.0
20 μl PKA (2units/ul) (Sigma # P2645)
40 μl=distilled H2O • 1. The tubes were incubated at 30° C. for 30 minutes. • 2. The reaction mix was then transferred to 0.5 ml thick walled glass tubes. • 3. The glass tubes containing the reaction mix were centrifuged for 10 min at 50,000×g in Sorvall Centrifuge RCM120EX using S120AT3 rotor. Centrifugation at 50,000×g for 10 min is sufficient to isolate the microsomes. • 4. The resulting pellet was washed 4 times with binding buffer (10 mM Imidazol 300 mM Sucrose, pH=7.4). Each time 100111 of 1× binding buffer was added to the tube to wash the pellet. The pellet was resuspended by flushing up and down using the pipette tip. After the last spin 501.11 of binding buffer was added and the pellets from all tubes were pooled. The reaction was stored at −20° C. • 5. Phosphorylation was confirmed by separating approximately 10 μg of CSR by 6% Polyacylamide gel electrophoresis (PAGE) and analyzing the immunoblots for both total RyR (5029 Ab, 1:3000 dilution or Monoclonal Ab from Affinity Bioreagents, Cat # MA3-916, 1:2000 dilution) and PKA phosphorylated RyR2 (P2809 Ab, 1:10000 dilution). • 6. Aliquots can be stored at −80 C.
C. Calstabin Rebinding Assay
• 1. PKA-phosphorylated CSR (approximately 20 μg) was incubated with 250 nM Calstabin 2 in 100111 binding buffer (as described above) with or without compounds. • 2. […] Calstabin2 binding was detected with anti-FKBP (Jayaraman et al., J. Biol. Chem. 1992; 267:9474-77, 1:2000) primary antibody and appropriate secondary antibody.

SMILES	Class (metabolic bioavailability) [1]	Clint_mic man (in vitro intrinsic clearance) [1]	MF mic % (metabolic bioavailability) [1]	MF human % [2]	Clint [2]	% remaining ([3]; 15 min)	% remaining ([3]; 30 min)	% remaining ([3]; 1 h)	MF rat % [4]	Clint [4]	% remaining ([5]; 15 min)	% remaining ([5]; 30 min)	% remaining ([5]; 1 h)	Class (metabolic bioavailability) [6]	Clint_mic rat (in vitro intrinsic clearance) [6]	MF mic % (metabolic bioavailability) [6]	binding of calstabin2 to PKA-phosphorylated RyR2 [9]	other results
COc1ccc2c(c1)CN(Cc1ccc(O)cc1)CCS2 [B]	very low	285 ml/min/gprot	6%	3%	693 ml/min/gprot	0%	0%	0%	3%	1334 ml/min/gprot	1%	0%	0%	very low	823 ml/min/gprot	5%	–	–
COc1ccc2c(c1)CN(Cc1ccccc1)CCS2 [Compound C]	very low	1326 ml/min/gprot	2%	16%	100 ml/min/gprot	0%	0%	0%	2%	2610 ml/min/gprot	0%	0%	0%	very low	1926 ml/min/gprot	2%	–	–
O=C1CN(/N=C/c2ccc(-c3ccc([N+](=O)[O-])cc3)o2)C(O)=N1 [Dantrolene]	–	–	–	–	–	–	–	–	–	–	–	–	–	–	–	–	–	antisense oligomer-guided exon skipping [7]: potentiate
COc1ccc2c(c1)CN(Cc1cccc(C(=O)O)c1)CCS2 [Compound 4, 3-((7-Methoxy-2,3-dihydrobenzo[f][1,4]thiazepin-4(5H)-yl)methyl)benzoic acid]	–	–	–	–	–	–	–	–	–	–	–	–	–	–	–	–	prevent dissociation of calstabin2 from PKA-phosphorylated RyR2, and/or enhance the (re)binding of calstabin2 to PKA-phosphorylated RyR2	EC50 [8]: ~150 nM; binding of calstabin1 to PKA phosphorylated RyR1 ([8]; indicated concentrations, immunoblot with calstabin1 antibody): prevented the dissociation of calstabin1 from PKA phosphorylated RyR1 and/or enhanced the (re)binding of calstabin1 to PKA-phosphorylated RyR1 in a dose-dependent manner
COC(=O)c1ccc(CN2CCSc3ccc(OC)cc3C2)cc1 [Compound 3, Methyl 4-((7-methoxy-2,3-dihydrobenzo[f][1,4]thiazepin-4(5H)-yl)methyl)benzoate]	–	–	–	–	–	–	–	–	–	–	–	–	–	–	–	–	prevent dissociation of calstabin2 from PKA-phosphorylated RyR2, and/or enhance the (re)binding of calstabin2 to PKA-phosphorylated RyR2	–
COC(=O)c1cccc(CN2CCSc3ccc(OC)cc3C2)c1 [Compound 2, Methyl 3-((7-methoxy-2,3-dihydrobenzo[f][1,4]thiazepin-4(5H)-yl)methyl)benzoate]	–	–	–	–	–	–	–	–	–	–	–	–	–	–	–	–	prevent dissociation of calstabin2 from PKA-phosphorylated RyR2, and/or enhance the (re)binding of calstabin2 to PKA-phosphorylated RyR2	–
